Laboratory results: ChEMBL document CHEMBL4828726, “Modification of 5-methylphenanthridium from benzothiazoles to indoles as potent FtsZ inhibitors: Broadening the antibacterial spectrum toward vancomycin-resistant enterococci” (Eur J Med Chem, 2021)

Key:
Assay type in all cases: functional
[1] = test system: Bacillus subtilis; test: Antibacterial activity against penicillin-susceptible Bacillus subtilis ATCC 9372 assessed as inhibition of bacterial growth measured after 20 hrs by two-fold microdilution assay
[2] = test system: Bacillus pumilus; test: Antibacterial activity against penicillin-susceptible Bacillus pumilus CMCC63202 assessed as inhibition of bacterial growth measured after 20 hrs by two-fold microdilution assay
[3] = test system: Staphylococcus aureus; test: Antibacterial activity against erythromycin-susceptible Staphylococcus aureus ATCC 25923 assessed as inhibition of bacterial growth measured after 20 hrs by two-fold microdilution assay
[4] = test system: Streptococcus pyogenes; test: Antibacterial activity against erythromycin-susceptible Streptococcus pyogenes assessed as inhibition of bacterial growth measured after 20 hrs by two-fold microdilution assay
[5] = test system: Escherichia coli; test: Antibacterial activity against penicillin-susceptible Escherichia coli ATCC 25922 assessed as inhibition of bacterial growth measured after 20 hrs by two-fold microdilution assay
[6] = test system: Pseudomonas aeruginosa; test: Antibacterial activity against penicillin-susceptible Pseudomonas aeruginosa ATCC 27853 assessed as inhibition of bacterial growth measured after 20 hrs by two-fold microdilution assay
[7] = test system: Staphylococcus aureus; test: Antibacterial activity against methicillin-resistant Staphylococcus aureus ATCC43300 assessed as inhibition of bacterial growth measured after 20 hrs by two-fold microdilution assay
[8] = test system: Staphylococcus aureus; test: Antibacterial activity against penicillin-resistant Staphylococcus aureus ATCC 31007 assessed as inhibition of bacterial growth measured after 20 hrs by two-fold microdilution assay
[9] = test system: Staphylococcus aureus; test: Antibacterial activity against clinical isolate Staphylococcus aureus C1 assessed as inhibition of bacterial growth measured after 20 hrs by two-fold microdilution assay
[10] = test system: Streptococcus pyogenes; test: Antibacterial activity against erythromycin-resistant Streptococcus pyogenes assessed as inhibition of bacterial growth measured after 20 hrs by two-fold microdilution assay
[11] = test system: Staphylococcus epidermidis; test: Antibacterial activity against penicillin-resistant Staphylococcus epidermidis assessed as inhibition of bacterial growth measured after 20 hrs by two-fold microdilution assay

Row | SMILES | MIC [1] [µg/mL] | MIC [2] [µg/mL] | MIC [3] [µg/mL] | MIC [4] [µg/mL] | MIC [5] [µg/mL] | MIC [6] [µg/mL] | MIC [7] [µg/mL] | MIC [8] [µg/mL] | MIC [9] [µg/mL] | MIC [10] [µg/mL] | MIC [11] [µg/mL]
1 | Cc1ccc2c[n+](C)c3ccc(-c4nc5ccccc5s4)cc3c2c1.[Cl-] | 1 | 4 | 16 | 4 | > 64 | > 64 | > 64 | > 64 | > 64 | 4 | > 64
2 | Cc1ccc2c[n+](C)c3ccc(-c4ccc5ccn(C)c5c4)cc3c2c1.[Cl-] | 2 | 16 | 4 | 4 | > 64 | > 64 | 32 | > 64 | 8 | 4 | > 64
3 | Cc1cccc2c1c[n+](C)c1ccc(-c3nc4ccccc4s3)cc21.[Cl-] | > 64 | > 64 | 16 | 32 | > 64 | > 64 | > 64 | > 64 | > 64 | 64 | > 64
4 | C[n+]1cc2ccccc2c2cc(-c3nc4ccccc4s3)ccc21.[Cl-] | > 64 | > 64 | > 64 | > 64 | > 64 | > 64 | > 64 | > 64 | > 64 | – | > 64
5 | COc1ccc2c[n+](C)c3ccc(-c4nc5ccccc5s4)cc3c2c1.[Cl-] | > 64 | > 64 | > 64 | > 64 | > 64 | > 64 | > 64 | > 64 | > 64 | – | > 64
6 | CCCCCn1ccc2ccc(-c3ccc4c(c3)c3c(C)cccc3c[n+]4C)cc21.[Cl-] | 2 | 4 | 2 | 16 | > 64 | > 64 | 2 | 4 | 2 | 16 | 8
7 | Cc1cccc2c[n+](C)c3ccc(-c4ccc5ccn(C)c5c4)cc3c12.[Cl-] | 1 | 8 | 2 | 8 | > 64 | > 64 | 8 | 32 | 8 | 4 | 16
8 | Cc1ccc2c[n+](C)c3ccc(-c4ccc5ccn(CC(C)C)c5c4)cc3c2c1.[Cl-] | 4 | 4 | 2 | 4 | > 64 | > 64 | 4 | 8 | 4 | 8 | 16
9 | CCCCCn1ccc2ccc(-c3ccc4c(c3)c3cc(C)ccc3c[n+]4C)cc21.[Cl-] | 4 | 8 | 2 | 8 | > 64 | > 64 | 4 | 8 | 4 | 16 | 8
10 | CCCn1ccc2ccc(-c3ccc4c(c3)c3cc(C)ccc3c[n+]4C)cc21.[Cl-] | 64 | > 64 | 16 | > 64 | > 64 | > 64 | 64 | > 64 | 32 | 32 | > 64
11 | Cc1ccc2c(c1)c[n+](C)c1ccc(-c3nc4ccccc4s3)cc21.[Cl-] | 4 | 32 | 32 | 16 | > 64 | > 64 | > 64 | > 64 | > 64 | 16 | > 64
12 | COc1ccc2c(c1)c[n+](C)c1ccc(-c3nc4ccccc4s3)cc21.[Cl-] | > 64 | > 64 | > 64 | > 64 | > 64 | > 64 | > 64 | > 64 | > 64 | – | > 64
